Measurements reported in patent US20230416271A1, “HETEROARYLQUINAZOLINE COMPOUNDS AS PROTEIN KINASE INHIBITORS” (CHENGDU CYNOGEN BIO-PHARMACEUTICAL TECHNOLOGY CO., LTD., priority 2020, published 2023).
Blank lines part the entries; values can stand above or below the compound they belong to.

Key:
Format in all cases: biochemical
CDK6/Cyclin D3 = CDK6/Cyclin D3 (Homo sapiens (Human), UniProt Q00534); experiment: Kinase activity assay (Caliper Mobility Shift Assay), CDK6/Cyclin D3
Protocol: (§1) The inhibitory effect of compounds against the kinase CDK4/cyclin D3 was detected by Caliper Mobility Shift Assay method. The final concentration of the compounds to be tested was set at 10 concentrations starting from 1 uM by 3-fold serial dilution. 5 μL of compounds at 5-fold final concentration and 10 μL of CDK4/cyclin D3 kinase solution at a final concentration of 10 nM was added to a 384-well reaction plate, respectively. The plate was pre-incubated for 10 min at room temperature (with negative control wells containing 10 uL of kinase buffer and 5 uL of 5% DMSO; positive control wells containing 10 μL of kinase solution and 5 uL of 5% DMSO). The reaction was initiated by adding 10 μL of ATP at a final concentration of 250 uM and the corresponding substrate peptide mixture at room temperature for 150 minutes. 30 uL of stop detection solution containing EDTA was added to stop the kinase reaction. Caliper EZ Reader was used to read the conversion rate. Conversion inhibition rate %=(average conversion rate of positive control %−conversion rate of sample %)/(average conversion rate of positive control %−average conversion rate of negative control %). wherein: negative control wells represent the conversion rate readings of wells without enzymatic activity; positive control wells represent conversion readings for wells with no compound inhibition. The log(inhibitor) vs. response—Variable slope of the analysis software GraphPad Prism 5 was used with log concentration value as the X-axis and the percent inhibition rate as the Y-axis to fit the dose-response curve, the IC50 value of each compound on the enzyme activity was thus obtained. Calculation formula: Y=Bottom+(Top−Bottom)/(1+10^((Log IC50−X)*HillSlope)).
(§2) The IC50 values and inhibitory activities of compounds of the present disclosure on CDK6/Cyclin D3, CDK2/Cyclin A2, and CDK9/cyclin T1 were tested in a similar manner.

CDK2/Cyclin A2 = CDK2/Cyclin A2 (Homo sapiens (Human), UniProt P24941); experiment: Kinase activity assay (Caliper Mobility Shift Assay), CDK2/Cyclin A2
Protocol: as §1, §2

CDK4/cyclin D3 = CDK4/cyclin D3 (Homo sapiens (Human), UniProt P11802); experiment: Kinase activity assay (Caliper Mobility Shift Assay), CDK4/cyclin D3; conditions: 10 nM kinase, 250 uM ATP
CDK4/cyclin D3, sequence (P11802 whole entry, species assumed): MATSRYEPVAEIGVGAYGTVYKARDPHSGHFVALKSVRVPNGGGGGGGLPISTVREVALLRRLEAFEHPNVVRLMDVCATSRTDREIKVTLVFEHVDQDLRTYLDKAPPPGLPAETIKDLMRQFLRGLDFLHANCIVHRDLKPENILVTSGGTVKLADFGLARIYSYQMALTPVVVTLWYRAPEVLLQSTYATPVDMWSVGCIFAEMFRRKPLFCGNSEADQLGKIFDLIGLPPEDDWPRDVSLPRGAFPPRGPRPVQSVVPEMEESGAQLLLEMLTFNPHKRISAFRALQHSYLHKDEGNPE
CDK4/cyclin D3, sequence (P30281 whole entry partner, species assumed): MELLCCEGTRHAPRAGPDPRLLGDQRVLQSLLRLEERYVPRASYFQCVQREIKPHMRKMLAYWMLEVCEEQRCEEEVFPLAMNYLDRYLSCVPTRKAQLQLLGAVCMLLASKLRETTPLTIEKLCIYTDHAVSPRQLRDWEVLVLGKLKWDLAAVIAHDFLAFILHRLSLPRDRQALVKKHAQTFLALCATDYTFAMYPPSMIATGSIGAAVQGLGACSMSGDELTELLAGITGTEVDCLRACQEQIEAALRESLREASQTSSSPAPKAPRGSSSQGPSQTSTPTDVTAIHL
Protocol: as §1

CDK6/Cyclin D3, sequence (Q00534 whole entry, species assumed): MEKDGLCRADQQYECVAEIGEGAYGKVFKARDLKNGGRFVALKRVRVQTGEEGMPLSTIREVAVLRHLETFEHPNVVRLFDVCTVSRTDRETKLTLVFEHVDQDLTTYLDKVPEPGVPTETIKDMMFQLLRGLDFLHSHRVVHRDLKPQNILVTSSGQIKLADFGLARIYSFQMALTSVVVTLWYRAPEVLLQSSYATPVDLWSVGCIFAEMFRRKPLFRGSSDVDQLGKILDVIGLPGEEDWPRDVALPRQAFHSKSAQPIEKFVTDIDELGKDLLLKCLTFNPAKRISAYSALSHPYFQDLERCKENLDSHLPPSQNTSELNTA
CDK6/Cyclin D3, sequence (P30281 whole entry partner, species assumed): as the sequence (P30281 whole entry partner, species assumed) above

Compound: CC(C)c1noc2ccc3cnc(NC4CCNCC4)nc3c12 [I.4, 9-isopropyl-N-(piperidin-4-yl)isoxazolo[5,4-h]quinazolin-2-amine]
IC50 (CDK6/Cyclin D3): 68 nM | IC50 (CDK2/Cyclin A2): 249 nM | IC50 (CDK4/cyclin D3): 47 nM

Compound: CC(C)c1noc2c(Cl)cc3cnc(NC4CCN(S(C)(=O)=O)CC4)nc3c12 [I.7, 6-chloro-9-isopropyl-N-(1-(methylsulfonyl)piperidin-4-yl)isoxazolo[5,4-h]quinazolin-2-amine]
IC50 (CDK6/Cyclin D3): 3 nM | IC50 (CDK2/Cyclin A2): 8 nM | IC50 (CDK4/cyclin D3): 7 nM

Compound: CC(C)c1noc2c(Br)cc3cnc(NC4CCN(S(C)(=O)=O)CC4)nc3c12 [I.8, 6-bromo-9-isopropyl-N-(1-(methylsulfonyl)piperidin-4-yl)isoxazolo[5,4-h]quinazolin-2-amine]
IC50 (CDK6/Cyclin D3): 3 nM | IC50 (CDK2/Cyclin A2): 9 nM | IC50 (CDK4/cyclin D3): 6 nM

Compound: CC(C)c1noc2c(C(F)F)cc3cnc(NC4CCN(S(C)(=O)=O)CC4)nc3c12 [I.9, 6-(difluoromethyl)-9-isopropyl-N-(1-(methylsulfonyl)piperidin-4-yl)isoxazolo[5,4-h]quinazolin-2-amine]
IC50 (CDK6/Cyclin D3): 7 nM | IC50 (CDK2/Cyclin A2): 5 nM | IC50 (CDK4/cyclin D3): 6 nM

Compound: CC(C)c1noc2c(CO)cc3cnc(NC4CCN(S(C)(=O)=O)CC4)nc3c12 [I.10, (9-isopropyl-2-((1-(methylsulfonyl)piperidin-4-yl)amino)isoxazolo[5,4-h]quinazolin-6-yl)methanol]
IC50 (CDK6/Cyclin D3): 71 nM | IC50 (CDK2/Cyclin A2): 49 nM | IC50 (CDK4/cyclin D3): 72 nM

Compound: Cc1cc2cnc(NC3CCN(S(C)(=O)=O)CC3)nc2c2c(C(C)C)noc12 [I.12, 9-isopropyl-6-methyl-N-(1-(methylsulfonyl)piperidin-4-yl)isoxazolo[5,4-h]quinazolin-2-amine]
IC50 (CDK6/Cyclin D3): 13 nM | IC50 (CDK2/Cyclin A2): 1 nM | IC50 (CDK4/cyclin D3): 5 nM

Compound: C[C@@]1(O)CCC[C@H]1c1noc2ccc3cnc(NC4CCN(S(C)(=O)=O)CC4)nc3c12 [I.13, (1R,2S)-1-methyl-2-(2-((1-(methylsulfonyl)piperidin-4-yl)amino)isoxazolo[5,4-h]quinazolin-9-yl)cyclopentan-1-ol]
IC50 (CDK6/Cyclin D3): 6 nM | IC50 (CDK2/Cyclin A2): 1 nM | IC50 (CDK4/cyclin D3): 3 nM

Compound: CC(C)n1nnc2ccc3cnc(N[C@H]4CC[C@H](Nc5ncccn5)CC4)nc3c21 [II.5, (1R,4R)-N^1-(1-isopropyl-1H-[1,2,3]triazolo[4,5-h]quinazolin-8-yl)-N^4-(pyrimidin-2-yl)cyclohexane-1,4-diamine]
IC50 (CDK6/Cyclin D3): 34 nM | IC50 (CDK2/Cyclin A2): 140 nM | IC50 (CDK4/cyclin D3): 22 nM

Compound: CC(C)n1nnc2ccc3cnc(N[C@H]4CC[C@H](N5CCN(C6CCCC6)CC5)CC4)nc3c21 [II.7, N-((1R,4R)-4-(4-cyclopentylpiperazin-1-yl)cyclohexyl)-1-isopropyl-1H-[1,2,3]triazolo[4,5-h]quinazolin-8-amine]
IC50 (CDK6/Cyclin D3): 26 nM | IC50 (CDK2/Cyclin A2): 465 nM | IC50 (CDK4/cyclin D3): 40 nM

Compound: CC(C)n1nnc2ccc3cnc(N[C@H]4CC[C@H](N5CCN(C(=O)C6CC6)CC5)CC4)nc3c21 [II.9, Cyclopropyl(4-((1R,4R)-4-((1-isopropyl-1H-[1,2,3]triazolo [4,5-h]quinazolin-8-yl)amino)cyclohexyl)piperazin-1-yl) ketone]
IC50 (CDK6/Cyclin D3): 35 nM | IC50 (CDK2/Cyclin A2): 356 nM | IC50 (CDK4/cyclin D3): 26 nM

Compound: CC(C)n1nnc2ccc3cnc(N[C@H]4CC[C@H](N5CCN(C(=O)c6ccccc6)CC5)CC4)nc3c21 [II.10, (4-((1R,4R)-4-((1-isopropyl-1H-[1,2,3]triazolo[4,5-h]quinazolin-8-yl)amino)cyclohexyl)piperazin-1-yl)(phenyl) ketone]
IC50 (CDK6/Cyclin D3): 46 nM | IC50 (CDK2/Cyclin A2): 336 nM | IC50 (CDK4/cyclin D3): 22 nM

Compound: CC(C)n1nnc2ccc3cnc(NC4CCC(NS(C)(=O)=O)CC4)nc3c21 (stereo not drawn) [II.11, N-(4-((1-isopropyl-1H-[1,2,3]triazolo[4,5-h]quinazolin-8-yl)amino)cyclohexyl)methanesulfonamide]
IC50 (CDK6/Cyclin D3): 15 nM | IC50 (CDK2/Cyclin A2): 1 nM | IC50 (CDK4/cyclin D3): 8 nM

Compound: CC(C)n1nnc2ccc3cnc(NC4CCNCC4)nc3c21 [II.12, 1-isopropyl-N-(piperidin-4-yl)-1H-[1,2,3]triazolo[4,5-h] quinazolin-8-amine]
IC50 (CDK6/Cyclin D3): 89 nM | IC50 (CDK2/Cyclin A2): 151 nM | IC50 (CDK4/cyclin D3): 51 nM

Continued, values first:

IC50 (CDK6/Cyclin D3): 38 nM | IC50 (CDK2/Cyclin A2): 258 nM | IC50 (CDK4/cyclin D3): 26 nM
Compound: CC(C)c1noc2ccc3cnc(N[C@H]4CC[C@H](Nc5ncccn5)CC4)nc3c12 [I.3, (1R,4R)-N^1-(9-isopropylisoxazolo[5,4-h]quinazolin-2-yl)-N^4-(pyrimidin-2-yl)cyclohexane-1,4-diamine]

IC50 (CDK6/Cyclin D3): 24 nM | IC50 (CDK2/Cyclin A2): 1 nM | IC50 (CDK4/cyclin D3): 10 nM
Compound: CC(C)c1noc2ccc3cnc(NC4CCN(S(C)(=O)=O)CC4)nc3c12 [I.5, 9-isopropyl-N-(1-(methylsulfonyl)piperidin-4-yl)isoxazolo[5,4-h]quinazolin-2-amine]

IC50 (CDK6/Cyclin D3): 12 nM | IC50 (CDK2/Cyclin A2): 1 nM | IC50 (CDK4/cyclin D3): 5 nM
Compound: CC(C)c1noc2c(F)cc3cnc(NC4CCN(S(C)(=O)=O)CC4)nc3c12 [I.6, 6-fluoro-9-isopropyl-N-(1-(methylsulfonyl)piperidin-4-yl)isoxazolo[5,4-h]quinazolin-2-amine]

IC50 (CDK6/Cyclin D3): 24 nM | IC50 (CDK2/Cyclin A2): 1 nM | IC50 (CDK4/cyclin D3): 10 nM
Compound: [2H]c1cc2cnc(NC3CCN(S(C)(=O)=O)CC3)nc2c2c(C(C)C)noc12 [I.11, 9-isopropyl-N-(1-(methylsulfonyl)piperidin-4-yl)isoxazolo[5,4-h]quinazolin-6-d-2-amine]

IC50 (CDK6/Cyclin D3): 8 nM | IC50 (CDK2/Cyclin A2): 2 nM | IC50 (CDK4/cyclin D3): 5 nM
Compound: C[C@@]1(O)CCC[C@H]1c1noc2c(C(F)F)cc3cnc(NC4CCN(S(C)(=O)=O)CC4)nc3c12 [I.14, (1R,2S)-2-(6-(difluoromethyl)-2-((1-(methylsulfonyl)piperidin-4-yl)amino)isoxazolo[5,4-h]quinazolin-9-yl)-1-methylcyclopentan-1-ol]

IC50 (CDK6/Cyclin D3): 8 nM | IC50 (CDK2/Cyclin A2): 2 nM | IC50 (CDK4/cyclin D3): 10 nM
Compound: CC(C)c1noc2c1-c1nc(NC3CCN(S(C)(=O)=O)CC3)ncc1CC2 [I.15, 9-isopropyl-N-(1-(methylsulfonyl)piperidin-4-yl)-5,6-dihydroisoxazolo[5,4-h]quinazolin-2-amine]

IC50 (CDK6/Cyclin D3): > 500 nM | IC50 (CDK2/Cyclin A2): > 500 nM | IC50 (CDK4/cyclin D3): > 500 nM
Compound: CC(C)n1nnc2ccc3cnc(N[C@H]4CC[C@H](N)CC4)nc3c21 [II.1, (1R,4R)-N1-(1-isopropyl-1H-[1,2,3]triazolo[4,5-h]quinazolin-8-yl)cyclohexane-1,4-diamine]

IC50 (CDK6/Cyclin D3): 26 nM | IC50 (CDK2/Cyclin A2): 12 nM | IC50 (CDK4/cyclin D3): 22 nM
Compound: CC(C)n1nnc2ccc3cnc(N[C@H]4CC[C@H](NC5CCNCC5)CC4)nc3c21 [II.3, (1R,4R)-N^1-(1-isopropyl-1H-[1,2,3]triazolo[4,5-h]quinazolin-8-yl)-N^4-(piperidin-4-yl)cyclohexane-1,4-diamine]

IC50 (CDK6/Cyclin D3): 22 nM | IC50 (CDK2/Cyclin A2): 20 nM | IC50 (CDK4/cyclin D3): 16 nM
Compound: COCCN[C@H]1CC[C@H](Nc2ncc3ccc4nnn(C(C)C)c4c3n2)CC1 [II.4, (1R,4R)-N^1-(1-isopropyl-1H-[1,2,3]triazolo[4,5-h]quinazolin-8-yl)-N^4-(2-methoxyethyl)cyclohexane-1,4-diamine]

IC50 (CDK6/Cyclin D3): 12 nM | IC50 (CDK2/Cyclin A2): 35 nM | IC50 (CDK4/cyclin D3): 10 nM
Compound: CC(C)n1nnc2ccc3cnc(N[C@H]4CC[C@H](N(C)C)CC4)nc3c21 [II.6, (1R,4R)-N^1-(1-isopropyl-1H-[1,2,3]triazolo[4,5-h]quinazolin-8-yl)-N^4,N^4-dimethylcyclohexane-1,4-diamine]
